Where two headings read alike, the source gives them in different places.
What was measured:
mouse NPC1L1 = biological target: T1, mouse NPC1L1 (Mus musculus, UniProt Q6T3U4, N476K); assay: Fluorescence NPC1L1 binding assay, HEK-293 cells, fluorescent compound 2 as ligand
T1 construct: expressed in transfected cells
Description: (§1) Cell Culture and Membrane Preparation. Each plasmid pCR3.1 harboring NPC1L1 was prepared using standard molecular biology protocols. Stable cell lines expressing human, rhesus monkey, mouse, rat, hamster, canine or rabbit NPC1L1 were generated using Lipofectamine 2000 transfection reagent in HEK-293 cells according to the manufacturer's protocol. Cells were maintained in DMEM supplemented with 10% FBS, 100 U/ml pen/strep, and 500 μg/ml geneticin at 37° C., 5% CO2. All cell culture reagents were obtained from Invitrogen Life Technologies, (Carlsbad, Calif.). Cell membranes were prepared by lysing cells in 5 mM HEPES with protease inhibitors (Complete™ Protease Inhibitor Cocktail Tablets; Roche Diagnostics Corp., Indianapolis Ind.) for 15 min at 4° C. A membrane pellet was obtained by centrifuging the cell lysates at 12,000×g for 25 min. The membranes were resuspended in 5 mM HEPES with protease inhibitors and triturated with a 21G needle.
(§2) Fluorescence. Cells were plated into 384-well black/clear plates (BD Biosciences, Bedford Mass.) for binding experiments the following day. The media was aspirated. […] Media (20 μl) containing the indicated concentration of compound was then added to the wells. […] The binding reaction was allowed to proceed for 4 hours at 37° C. Subsequently the media was aspirated and the cells washed once with PBS.
In an effort to show binding to mouse NPC1L1, several related ezetimibe analogs were examined as possible alternatives to fluorescently-labeled (BODIPY) ezetimibe glucuronide (compound 1) in the binding assay. Compound 2, which is a fluorescently labeled synthetic precursor for fluorescently-labeled (BODIPY) ezetimibe glucuronide (compound 1; Burnett et al., Bioorganic and Medicinal Chemistry Letters 12:315-318 (2002)), was identified as a viable option for detection of mouse NPC1L1 binding. Compound 2 contains a methyl ester substitution for the carboxylic acid on the glucuronide portion of the molecule (compound structures shown in FIG. 4A).

[1] = intraduodenal delivery, first pass metabolism in the intestine; cited from earlier work
[2] = following oral administration; cited from earlier work
cholesterol absorption [3] = assay: In vivo potency of ezetimibe (ED50); conditions: Canis lupus familiaris, Canine
[4] = system: ^14C-cholesterol absorption; assay: Acute cholesterol absorption assay; type: in vivo; conditions: rat, intraduodenal; read-out: rat ED50, inhibition of cholesterol absorption
Description: Acute cholesterol absorption assay. ^14C-cholesterol absorption was determined acutely in rats using conditions previously described (Van Heek et al., J. Pharmacol. Exp. Ther. 283: 157-163 (1997)). Compounds were dissolved in rat bile and delivered (1.0 ml) intraduodenally by bolus injection via an intestinal catheter, followed by 1.0 ml saline rinse (0.9%). Following a 30 min incubation, a cholesterol emulsion containing 3 mg cholesterol and 2 μCi ^14C-cholesterol (3 ml) was delivered to each rat as a bolus via intestinal catheter, followed by 1 ml saline rinse. Animals were sacrificed 90 min later and ^14C-cholesterol levels in plasma, liver, intestinal contents, and intestinal wall were determined.

cholesterol absorption [5] = assay: In vivo potency of ezetimibe (ED50); conditions: Mouse
cholesterol absorption [6] = assay: In vivo potency of ezetimibe (ED50); conditions: Rat
cholesterol absorption [7] = assay: In vivo potency of ezetimibe (ED50); conditions: Mesocricetus auratus, Hamster
[8] = system: plasma and liver cholesterol; assay: Percent cholesterol lowering in plasma and liver; type: in vivo; conditions: hamster
cholesterol absorption [9] = assay: In vivo potency of ezetimibe (ED50); conditions: Primates, Monkey
rabbit NPC1L1 = rabbit NPC1L1 (Oryctolagus cuniculus, UniProt A0MJA7); assay: Fluorescence NPC1L1 binding assay, HEK-293 cells, BODIPY-labeled compound 1
Description: as §1, §2

rat NPC1L1 = biological target: T2, rat NPC1L1 (Rattus norvegicus, UniProt Q6T3U3, A349V/E317P/G318E/K324N/L297S); assay: as above; conditions: Rat NPC1L1, competition with compound 1; read-out: Ki
T2 construct: expressed in transfected cells
Description: as §1, §2

hamster NPC1L1 = hamster NPC1L1 (Mesocricetus auratus, UniProt A0MJA8); assay: as above
Description: as §1, §2

canine NPC1L1 = canine NPC1L1 (Canis lupus familiaris, UniProt A0MJA4); assay: as above
Description: as §1, §2

human NPC1L1 = biological target: T3, human NPC1L1 (Homo sapiens, UniProt Q9UHC9, T1073A); assay: as above; conditions: Human NPC1L1, competition with compound 1; read-out: Ki
T3 construct: expressed in transfected cells
T3 sequence (Q9UHC9 22-1332 isoform Q9UHC9-2 T1046A): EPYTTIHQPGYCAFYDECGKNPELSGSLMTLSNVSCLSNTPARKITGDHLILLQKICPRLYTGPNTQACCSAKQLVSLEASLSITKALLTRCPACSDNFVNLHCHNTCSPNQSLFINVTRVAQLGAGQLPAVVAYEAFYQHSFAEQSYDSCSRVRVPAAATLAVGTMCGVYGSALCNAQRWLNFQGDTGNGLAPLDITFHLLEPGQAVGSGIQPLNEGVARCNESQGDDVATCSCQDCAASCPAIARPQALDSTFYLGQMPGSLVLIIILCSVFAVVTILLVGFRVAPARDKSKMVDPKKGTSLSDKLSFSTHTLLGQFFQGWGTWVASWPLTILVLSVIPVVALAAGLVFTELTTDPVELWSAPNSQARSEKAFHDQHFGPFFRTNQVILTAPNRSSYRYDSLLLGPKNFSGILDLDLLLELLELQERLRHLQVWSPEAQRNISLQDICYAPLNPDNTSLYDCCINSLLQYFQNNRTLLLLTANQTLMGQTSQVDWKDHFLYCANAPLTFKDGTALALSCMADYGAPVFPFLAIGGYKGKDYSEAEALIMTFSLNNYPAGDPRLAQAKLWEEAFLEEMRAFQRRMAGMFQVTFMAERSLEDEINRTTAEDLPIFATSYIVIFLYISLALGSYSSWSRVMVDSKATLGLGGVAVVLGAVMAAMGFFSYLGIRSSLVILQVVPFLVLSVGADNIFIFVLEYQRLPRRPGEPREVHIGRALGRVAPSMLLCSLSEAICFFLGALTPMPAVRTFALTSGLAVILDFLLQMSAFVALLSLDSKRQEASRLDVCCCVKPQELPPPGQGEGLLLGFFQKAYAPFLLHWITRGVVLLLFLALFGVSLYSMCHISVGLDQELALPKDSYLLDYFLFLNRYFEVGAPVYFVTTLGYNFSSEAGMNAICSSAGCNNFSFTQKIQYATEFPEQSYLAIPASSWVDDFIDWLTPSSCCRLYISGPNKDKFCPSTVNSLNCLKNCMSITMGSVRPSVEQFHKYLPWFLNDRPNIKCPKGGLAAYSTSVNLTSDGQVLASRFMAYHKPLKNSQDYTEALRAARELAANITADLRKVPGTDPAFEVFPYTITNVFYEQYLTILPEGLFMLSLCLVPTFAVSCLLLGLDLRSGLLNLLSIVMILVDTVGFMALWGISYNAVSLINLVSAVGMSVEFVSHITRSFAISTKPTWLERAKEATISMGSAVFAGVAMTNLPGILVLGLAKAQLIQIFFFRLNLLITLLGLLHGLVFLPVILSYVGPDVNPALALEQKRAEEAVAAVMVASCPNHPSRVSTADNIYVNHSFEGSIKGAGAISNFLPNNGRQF
Description: as §1, §2

monkey NPC1L1 = monkey NPC1L1 (Macaca mulatta, UniProt A0MJA5); assay: as above; set-up: species or system rhesus monkey; conditions: Monkey NPC1L1, competition with compound 1; read-out: Ki
Description: as §1, §2

Ki (mouse NPC1L1; Mouse NPC1L1, competition with compound 2, read-out: Ki): 5400 nM | Ki (mouse NPC1L1; Table 3, Mouse, read-out: Ki Mouse NPC1L1): 9000 nM | Ki (rabbit NPC1L1; Rabbit NPC1L1, competition with compound 1, read-out: Ki): 2120 nM | Ki (rabbit NPC1L1; Table 3, Rabbit, read-out: Ki Rabbit NPC1L1): 2100 nM | Ki (rat NPC1L1): 970 nM | Ki (hamster NPC1L1; Hamster NPC1L1, competition with compound 1, read-out: Ki): 1530 nM | Ki (hamster NPC1L1; Table 3, Hamster, read-out: Ki Hamster NPC1L1): 1530 nM | Ki (canine NPC1L1; Canine NPC1L1, competition with compound 1, read-out: Ki): 770 nM | Ki (canine NPC1L1; Table 3, Dog, read-out: Ki Dog NPC1L1): 770 nM | Ki (human NPC1L1): 2240 nM | Ki (monkey NPC1L1): 900 nM
Compound: O=C1[C@H](CC[C@H](O)c2ccc(F)cc2)[C@@H](c2ccc(O)cc2)N1c1ccc(F)cc1 [compound 3, ezetimibe]
fraction of compound in portal plasma that is the glucuronide compound 4 [1]: > 95% | fraction of ezetimibe glucuronidated [2]: 90% | ED50 (cholesterol absorption [3]): 0.007 mg/kg | ED50 [4]: 0.0016 mg/kg | ED50 (cholesterol absorption [5]): 0.7 mg/kg | ED50 (cholesterol absorption [6]): 0.03 mg/kg | ED50 (cholesterol absorption [7]): 0.04 mg/kg | cholesterol lowering Liver ([8]; liver): 96% | cholesterol lowering Plasma ([8]; plasma): 26% | ED50 (cholesterol absorption [9]): 0.0005 mg/kg
